According to the supplement of paper PMC4862054:

How the values were obtained:
Details in all cases: incubation time: 72 h
HCC1937 [1] = assay: normalised response (% of control), CellTox Green; higher = less cell death (100 = DMSO, 0 = benzethonium chloride kill control)
Procedure, shortened: (§1)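 Each value is the plate-normalised signal at one concentration of the series. Breast cancer cell lines (20 µl suspension) were incubated 72 h in 384-well plates with compound at 5 concentrations in 10-fold steps over a compound-specific 10,000-fold range. CellTox Green and then CellTiter-Glo were read, and each plate was scaled to 0.1 % DMSO (100) and a positive kill control (0).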

DU-4475 [2] = assay: as above
Procedure, shortened: as §1

BT-549 [3] = assay: as above
Procedure, shortened: as §1

HCC1599 [4] = assay: as above
Procedure, shortened: as §1

HCC1937 [5] = assay: normalised response (% of control), CellTiter-Glo; higher = more viable cells (100 = DMSO, 0 = benzethonium chloride kill control)
Procedure, shortened: as §1

HCC1143 = assay: as above
Procedure, shortened: as §1

Hs578T = assay: as above
Procedure, shortened: as §1

CAL-51 [6] = assay: as above
Procedure, shortened: as §1

MFM-223 = assay: as above
Procedure, shortened: as §1

CAL-85-1 [7] = assay: as above
Procedure, shortened: as §1

MDA-MB-468 = assay: as above
Procedure, shortened: as §1

MCF-10A = assay: as above
Procedure, shortened: as §1

MDA-MB-436 = assay: as above
Procedure, shortened: as §1

DU-4475 [8] = assay: as above
Procedure, shortened: as §1

BT-549 [9] = assay: as above
Procedure, shortened: as §1

CAL-148 [10] = assay: as above
Procedure, shortened: as §1

SK-BR-3 = assay: as above
Procedure, shortened: as §1

HCC1599 [11] = assay: as above
Procedure, shortened: as §1

BT-474 = assay: as above
Procedure, shortened: as §1

HDQ-P1 [12] = assay: as above
Procedure, shortened: as §1

CAL-120 = assay: as above
Procedure, shortened: as §1

MDA-MB-231 = assay: as above
Procedure, shortened: as §1

MDA-MB-453 [13] = assay: as above
Procedure, shortened: as §1

CAL-51 [14] = assay: normalised viability (% of control), CellTiter-Blue; higher = more viable cells (about 100 = DMSO control)
Procedure, shortened: (§2)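 384-well plates were pre-loaded with compound in 5 µl medium before 20 µl of breast cancer cell suspension was seeded. Following 72 h incubation, 2.5 µl CellTiter-Blue reagent was added for 2 h at 37 °C. Fluorescence was read at 560/590 nm and plates were normalised to vehicle (100) and a positive kill control (0), checked by Z'-factor. Normalised viability is reported at a single listed concentration of the series.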

CAL-85-1 [15] = assay: as above
Procedure, shortened: as §2

DU-4475 [16] = assay: as above
Procedure, shortened: as §2

CAL-148 [17] = assay: as above
Procedure, shortened: as §2

HDQ-P1 [18] = assay: as above
Procedure, shortened: as §2

MDA-MB-453 [19] = assay: as above
Procedure, shortened: as §2

| SMILES | normalised response (HCC1937 [1]) | normalised response (DU-4475 [2]) | normalised response (BT-549 [3]) | normalised response (HCC1599 [4]) | normalised response (HCC1937 [5]) | normalised response (HCC1143) | normalised response (Hs578T) | normalised response (CAL-51 [6]) | normalised response (MFM-223) | normalised response (CAL-85-1 [7]) | normalised response (MDA-MB-468) | normalised response (MCF-10A) | normalised response (MDA-MB-436) | normalised response (DU-4475 [8]) | normalised response (BT-549 [9]) | normalised response (CAL-148 [10]) | normalised response (SK-BR-3) | normalised response (HCC1599 [11]) | normalised response (BT-474) | normalised response (HDQ-P1 [12]) | normalised response (CAL-120) | normalised response (MDA-MB-231) | normalised response (MDA-MB-453 [13]) | normalised viability (CAL-51 [14]) | normalised viability (CAL-85-1 [15]) | normalised viability (DU-4475 [16]) | normalised viability (CAL-148 [17]) | normalised viability (HDQ-P1 [18]) | normalised viability (MDA-MB-453 [19]) |
| --- | --- | --- | --- | --- | --- | --- | --- | --- | --- | --- | --- | --- | --- | --- | --- | --- | --- | --- | --- | --- | --- | --- | --- | --- | --- | --- | --- | --- | --- |
| CN(N=O)C(=O)N[C@@H](C=O)[C@@H](O)[C@H](O)[C@H](O)CO [Streptozocin] (10000 nM) | 71.6% | 98.1% | 96.1% | 98.6% | 105% | 106% | 109% | 91.8% | 106% | 98.5% | 104% | 110% | 97.2% | 96.1% | 97.7% | 107% | 108% | 92.5% | 100% | 102% | 109% | 98% | 95.6% | 101% | 91.1% | 92.6% | 105% | 122% | 99.1% |
| COc1cc([C@@H]2c3cc4c(cc3[C@@H](O[C@@H]3O[C@@H]5CO[C@@H](C)O[C@H]5[C@H](O)[C@H]3O)[C@H]3COC(=O)[C@H]23)OCO4)cc(OC)c1O [Etoposide] (10000 nM) | 106% | 78.4% | 85.4% | 91% | 67.5% | 38.8% | 67.3% | 23.9% | 90.8% | 49.8% | 38.5% | 87.1% | 36.6% | 19.6% | 35.9% | 39.9% | 15.8% | 11.8% | 44.1% | 82.3% | 73.7% | 70.8% | 142% | 18.4% | 63.1% | 4.57% | 31.7% | 62.6% | 61.4% |
| CCC1=C[C@@H]2CN(C1)Cc1c([nH]c3ccccc13)[C@@](C(=O)OC)(c1cc3c(cc1OC)N(C)[C@H]1[C@@](O)(C(=O)OC)[C@H](OC(C)=O)[C@]4(CC)C=CCN5CC[C@]31[C@@H]54)C2 [Vinorelbine] (10000 nM) | 83.1% | 90.9% | 43.6% | 70.8% | 69.8% | 55.3% | 15.9% | 27.5% | 39.6% | 48.9% | 18.1% | 78.3% | 24.5% | 40.4% | 36.1% | 49.6% | 14.8% | 4.45% | 48.2% | 70.6% | 54% | 40.1% | 53.8% | 11.5% | 44.2% | 9.67% | 30.3% | 38.9% | 29.4% |
